Data taken from patent publication US20030032000A1, “Method for analyzing cellular events” (Signature BioScience Inc., priority 2001, published 2003).

Assays:
[1] = test system: CHOk1 cells; assay: MCS cellular activity assay in un-transfected CHOk1 wild-type cells; details: various concentrations of carbachol, signal integrated over 50 MHz to 1 GHz
[2] = test system: calcium flux; assay: MCS detection of calcium flux modifiers in wild-type and transfected cells; format: cell-based, Chinese Hampster
Experimental: Ability to detect other calcium flux modifies was tested using ionomycin (an ionophore).

Row | Structure (SMILES) | integrated MCS signal over time versus buffer [1] | inhibition of ionomycin effect, MCS [2]
1 | C[N+](C)(C)CCOC(N)=O [carbachol] | essentially no change in signal over time | –
2 | C/C=C(/C)C(=O)O[C@H]1C(C)=C2[C@H]([C@@H]1OC(=O)CCCCCCC)[C@@](C)(OC(C)=O)C[C@H](OC(=O)CCC)[C@@]1(O)[C@H]2OC(=O)[C@@]1(C)O [thapsigargin] | – | inhibit ionomycin
